In patent US11173139B2, “Method for extending lifespan delaying the onset of age-related disease” (priority 2004, dated 2021):

Experiments:
Sir2 or SIRT1 = settings: cited from earlier work
Drosophila melanogaster = assay: D. melanogaster lifespan under stress (food vials not changed, microbial pathogens); type: in vivo; settings: Example 5, flies under stress
Source text: It is well known in the literature that calorie restricted animals survive stress better than the control animals fed an ad libitum diet. The data from the experiment were charted and are represented in FIG. 5.

[1] = Weight gain of older (9 month) C57Bl/6 mice fed oxaloacetate; type: in vivo, C57Bl/6 type male mice; settings: 0.4% oxaloacetate in the food, eating freely, 9 month old mice
Source text: C57Bl/6 type male mice approximately 9 months of age were obtained from Harlan, San Diego, Calif. as retired breeders. These mice were all born on the same day. The C57Bl/6 type mouse is inbred to reduce the genetic variation between individuals. The mice were housed in individual cages and were provided with ad libitum amounts of fortified food pellets (Kadee). The amount of food consumed was weighed daily, while the mice were weighed weekly. After two weeks, a baseline of the average food consumed by the mice was established at 7.1 grams per mouse per day. In addition, after an overnight fast, blood glucose readings for each mouse were recorded for each mouse. […] Male C57Bl/6 type mice, when allowed to eat freely, gain weight with age in a linear fashion. The mice were weighed weekly for 21 weeks, and the individual weights were recorded and averaged to form a “group average” for each of the three groups.

[2] = mouse, in vivo
[3] = system: liver tissue gene expression; assay: Liver gene expression, Affymatrix Mouse Genome 430 2.0 Array, oxaloacetate and CR mice versus control mice; type: in vivo, C57Bl/6 mice; settings: for common genes changed in same direction as calorie restriction: of the 363 common genes
Source text: Three mice of each of the three groups of the C57Bl/6 mice of Example 6 were sacrificed after 21 weeks. […] Because each group was a pooling of three mice, there are a variety of individual responses. Changes in the physical results of the group (such as weight loss, increase in health span, and increase in life span) are due to genes expressed in common by the group, not in individual variation. Thus it is important to look at the genes that changed in expression from the control group, but are commonly expressed between the calorie restricted group and the oxaloacetate supplemented group.

[4] = in vivo; cited from earlier work
C57Bl/6 mice = assay: Lifespan and health of C57Bl/6 mice fed oxaloacetate; type: in vivo; settings: 0.4% in food by weight, at the 21st month of life, still continuing
[5] = system: Drosophila melanogaster (Vestigal type); assay: D. melanogaster lifespan with oxaloacetate in fly food; type: in vivo; settings: Example 4, 16 mM in water wetting the fly food, vs control
Source text: The fruit fly Drosophila melanogaster (Vestigal type, from Carolina Biological Supply) was used as a test organism to assess the addition of oxaloacetate therapy (from Sigma Aldrich Company) applied to the cells to extend lifespan and to act as a caloric restriction “mimic”. The fruit fly is more complex than C. elegans, but the metabolic pathways that involve calorie restriction are a basic building block of life, and are conserved throughout the animal kingdom. […] A small amount of yeast was added on top of the fly food. […] The flies were kept in a room receiving reflected natural sunlight at a temperature of 21° C. Each of the flies used emerged from the pupae state within 8 hours of each other. The day the flies were moved to the test vials was designated “day 0”, reflecting the emergence of the fly into adulthood. The flies were kept out of direct sunlight and were raised at a temperature of 21° C. The food vials were prepared every 3 to 4 days and the flies transferred to prevent infestation of mites and other pathogenic microbial organisms. The vials with the flies were counted every day to determine the number of dead vs. living. Flies were scored as dead when they no longer respond to a gentle prodding with a probe. Lifespan is defined as the time elapsed from when the flies enter into adulthood (lifespan=0) to when they are scored as dead. […]

[6] = 21 diabetic patients, 100 mg to 1,000 mg (2-10 mg/kg); cited from earlier work
[7] = system: C. elegans (N2 wild type); assay: C. elegans lifespan on oxaloacetate-containing nematode growth agar; type: in vivo, Caenorhabditis elegans
Protocol: A similar set of eight control plates with the same nematode growth agar was also prepared. […] In addition, five “starter plates” were made using nematode growth agar and no 5′flurodeoxyuridine. All plates were streaked with 0.5 ml bacteria Luria broth containing E. coli as a food source for the nematodes. The bacteria were allowed to grow on the plates for several days at 37° C. prior to adding C. elegans. Ten C. elegans nematodes were transferred to each of five “starter plates” and were left on the plates for 12 hours to lay eggs. The C. elegans were then removed and the eggs were allowed to grow into young adults for two days. Ten nematodes were then transferred to each control plate and oxaloacetate plate by “picking” worms with a microprobe from the starter plate and moving it onto the target test plates. The day after the starter plates have been started with the 10 C. elegans was designated “day 0”, and was the estimated time of birth. The C. elegans were kept out of direct sunlight and were raised at a temperature of 21° C. The plates with the C. elegans were counted every day to determine the number of dead nematodes. Nematodes were scored as dead when they no longer respond to a gentle prodding with a probe. Lifespan is defined as the time elapsed from when the nematodes are hatched (lifespan=0) to when they are scored as dead. Nematodes that crawl off the plates or are otherwise lost during the assay have been excluded from calculations. The dead nematodes were removed from the plates each day with microprobe. The total population is the sum of all found dead worms. The counting of the nematodes was continued until all nematodes were dead. The data was then charted and is represented in FIG. 2. […] The highest increase in lifespan was at 16 mM (approximate 25%) for the concentrations tested, and the lowest increase was a 2 mM (approximately 10%). […] Splitomycin is a selective inhibitor for the Sir2 gene (Sir2a in yeast, Sirt1 in humnans).

[8] = count of genes among those shown to change commonly

CC=O [acetaldehyde]
activity of beneficial genes (Sir2 or SIRT1): did not see any increase in the activity of beneficial genes

O=C(O)CC(=O)C(=O)O [oxaloacetate]
maximal increase in lifespan (Drosophila melanogaster): 30% | less weight gained than control group [1]: 20% | toxicity [2]: negative toxicity | percentage of common changed genes moving in same direction as calorie restriction ([3]; 363 common genes, liver, Table 1): 98% | Gene Movement in Same Direction?, Cyp2b9 ([3]; Affymatrix No. 3985, OX versus CR, both to control): YES | Gene Movement in Same Direction?, similar to cytochrome P450 2B4-rat (LOC232993) ([3]; Affymatrix No. 17655, OX versus CR, both to control): YES | Percentage of Genes Moving in Same Direction as Calorie Restricted Mice ([3]; Table 2, 1.7 fold cut off): 100.0% | Mice Fed Oxaloacetate with Genes Moving in Opposite Direction as Calorie Restricted Mice [3, 8]: 7 | Mice Fed Oxaloacetate with Genes Moving in Same Direction as Calorie Restricted Mice [3, 8]: 356 | Percentage of Mice Fed Oxaloacetate with Genes Moving in Same Direction as Calorie Restricted Mice ([3]; genes shown to change commonly): 98.1% | common genes changed in same direction as calorie restriction ([3]; liver): 357 genes | common genes changed in same direction as calorie restriction ([3]; liver, listed as Oxaloacetate): 356 genes | genes with measurable change in expression versus control ([3]; pooled liver of three mice, 21 weeks): 765 genes | genes changed in common with calorie restricted mice versus control ([3]; pooled liver, 21 weeks): 363 genes | LD50 [4]: above 5 g/kg of body weight | increase in lifespan over control group (C57Bl/6 mice): ≥ 10% | increase in average lifespan [5]: 20% | side effects [6]: no negative side effects | increase in maximal life span ([7]; Example 1, 16 mM in nematode growth agar, vs control plates): 40% | increase in average lifespan ([7]; Example 1, 16 mM in nematode growth agar, vs control plates, 21° C.): 23.6% | increase in lifespan ([7]; Example 2, 2 mM in agar (lowest increase)): approximately 10% | increase in lifespan ([7]; Example 2, 16 mM in agar (highest increase)): ~25%

O=C1CCc2c(ccc3ccccc23)O1 [splitomycin, reference compound]
lifespan compared with control group ([7]; Example 3, FIG. 3, inhibited Sir2 function, no oxaloacetate): lived for shorter periods than the control group
